Patent US8536168B2 (Novartis AG, priority 2007, dated 2013)
Read-outs that look alike come from different tables or passages of the source.

Assays:
Gli-luciferase activity = assay: Reporter gene assay (RGA) in TMHh12 cells, antagonism of Gli-luciferase activity in the presence of a Smo agonist; assay type: cell-based
Protocol: Activity of the compounds was evaluated using a reporter gene assay (RGA) in TMHh12 cells.

[1] = target: mouse Smoothened receptor (Mus musculus, UniProt P56726); assay: Smo binding assay, displacement of radio-labeled smoothened agonist, filter binding format (mouse); details: displacement of small molecule agonist of Smoothened, read-out: Mouse Smo bdg., IC50
From the text: A Smo binding assay was developed using radio-labeled smoothened agonist for compound competition.

[2] = target: human Smoothened receptor (Homo sapiens, UniProt Q99835); assay: Smo binding assay, displacement of radio-labeled smoothened agonist, filter binding format (human); details: displacement of small molecule agonist of Smoothened, read-out: Human Smo bdg., IC50
From the text: A Smo binding assay was developed using radio-labeled smoothened agonist for compound competition. Table 9 lists the IC50 for displacement of a small molecule agonist of Smoothened determined in a filter binding format for the mouse and human Smoothened receptor.

[3] = 25 nM small molecule Smo agonist, read-out: RGA (25 nM Smo agonist) IC50
[4] = read-out: RGA (1 nM Smo agonist) IC50, 1 nM small molecule Smo agonist

Sequence of human Smoothened receptor (Q99835 28-787): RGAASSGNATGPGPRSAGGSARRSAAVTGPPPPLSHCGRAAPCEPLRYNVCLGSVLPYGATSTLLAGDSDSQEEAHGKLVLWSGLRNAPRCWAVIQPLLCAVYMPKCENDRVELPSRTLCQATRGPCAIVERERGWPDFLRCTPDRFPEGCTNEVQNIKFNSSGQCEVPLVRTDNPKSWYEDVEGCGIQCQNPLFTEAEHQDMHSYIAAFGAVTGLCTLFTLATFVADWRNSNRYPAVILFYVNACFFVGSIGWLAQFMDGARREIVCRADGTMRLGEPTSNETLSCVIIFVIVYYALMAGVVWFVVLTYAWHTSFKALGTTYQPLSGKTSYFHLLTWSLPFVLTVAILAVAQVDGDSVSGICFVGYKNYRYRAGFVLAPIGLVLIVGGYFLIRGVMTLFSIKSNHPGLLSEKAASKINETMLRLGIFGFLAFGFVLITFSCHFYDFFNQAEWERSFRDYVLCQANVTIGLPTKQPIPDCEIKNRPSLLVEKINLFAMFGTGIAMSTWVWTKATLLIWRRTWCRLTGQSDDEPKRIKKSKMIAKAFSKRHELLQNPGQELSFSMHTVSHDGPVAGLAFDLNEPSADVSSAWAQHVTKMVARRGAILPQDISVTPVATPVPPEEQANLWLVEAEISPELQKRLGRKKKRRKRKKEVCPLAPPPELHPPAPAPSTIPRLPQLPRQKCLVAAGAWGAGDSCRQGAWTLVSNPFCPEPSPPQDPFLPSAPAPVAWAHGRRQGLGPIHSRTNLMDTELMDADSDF
Sequence of mouse Smoothened receptor (P56726 33-793): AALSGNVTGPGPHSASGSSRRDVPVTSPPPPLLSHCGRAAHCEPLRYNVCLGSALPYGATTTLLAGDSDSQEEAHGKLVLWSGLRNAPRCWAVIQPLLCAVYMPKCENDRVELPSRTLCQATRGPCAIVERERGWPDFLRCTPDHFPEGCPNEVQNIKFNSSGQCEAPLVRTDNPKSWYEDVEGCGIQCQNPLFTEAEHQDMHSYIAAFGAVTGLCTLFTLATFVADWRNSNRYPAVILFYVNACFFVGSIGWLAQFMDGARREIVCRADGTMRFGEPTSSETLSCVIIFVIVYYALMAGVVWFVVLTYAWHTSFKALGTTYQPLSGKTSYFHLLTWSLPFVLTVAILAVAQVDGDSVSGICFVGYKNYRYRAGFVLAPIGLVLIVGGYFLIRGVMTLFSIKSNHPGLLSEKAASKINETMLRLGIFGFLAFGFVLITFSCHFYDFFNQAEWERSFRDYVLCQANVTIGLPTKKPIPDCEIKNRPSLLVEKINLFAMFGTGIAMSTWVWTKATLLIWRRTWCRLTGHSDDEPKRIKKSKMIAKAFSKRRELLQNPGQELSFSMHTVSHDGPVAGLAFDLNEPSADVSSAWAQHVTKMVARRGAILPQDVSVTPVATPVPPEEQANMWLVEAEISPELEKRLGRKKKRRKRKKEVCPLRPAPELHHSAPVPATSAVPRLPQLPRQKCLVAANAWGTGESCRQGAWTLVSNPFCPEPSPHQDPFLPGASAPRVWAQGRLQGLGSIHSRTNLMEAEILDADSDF

Structure (SMILES): CC(=O)c1cnc(N2CCN(c3nnc(Cc4ccccc4)c4ccccc34)C[C@H]2C)cn1 [Example 157]
- IC50 (Gli-luciferase activity; [3]): < 0.1 µM
- IC50 (Gli-luciferase activity; [4]): < 0.1 µM
- IC50 [1]: < 0.1 µM
- IC50 [2]: < 0.1 µM

Structure (SMILES): FC1(F)CN(Cc2ccc(N3CCN(c4nnc(Cc5ccccc5)c5ccccc45)CC3)nc2)C1 [Example 229]
- IC50 (Gli-luciferase activity; [3]): 0.1 to 1 µM
- IC50 (Gli-luciferase activity; [4]): 0.1 to 1 µM
- IC50 [1]: < 0.1 µM
- IC50 [2]: < 0.1 µM

Structure (SMILES): COCC(=O)OCc1ccc(N2CCN(c3nnc(Cc4ccccc4)c4ccccc34)CC2)nc1 [Example 159, Methoxy-acetic acid 6-[4-(4-benzyl-phthalazin-1-yl)-piperazin-1-yl]-pyridin-3-ylmethyl ester]
- IC50 (Gli-luciferase activity; [3]): 1 to 10 µM
- IC50 (Gli-luciferase activity; [4]): 0.1 to 1 µM
- IC50 [1]: 0.1 to 1 µM
- IC50 [2]: 0.1 to 1 µM

Structure (SMILES): N#Cc1ccc(Cc2nnc(N3CCN(c4ccc(C#N)cn4)CC3)c3ccccc23)cc1 [Example 57]
- IC50 (Gli-luciferase activity; [3]): 0.1 to 1 µM
- IC50 (Gli-luciferase activity; [4]): < 0.1 µM
- IC50 [1]: < 0.1 µM
- IC50 [2]: < 0.1 µM

Structure (SMILES): COCC(=O)NC(C)(C)c1ccc(N2CCN(c3nnc(Cc4ccccc4)c4ccccc34)CC2)nc1 [Example 121, N-(2-(6-(4-(4-Benzylphthalazin-1-yl)piperazin-1-yl)pyridin-3-yl)propan-2-yl)-2-methoxyacetamide]
- IC50 (Gli-luciferase activity; [3]): < 0.1 µM
- IC50 (Gli-luciferase activity; [4]): < 0.1 µM
- IC50 [1]: < 0.1 µM
- IC50 [2]: < 0.1 µM

Structure (SMILES): Cc1cccc(Cc2nnc(N3CCN(c4ccc(C#N)cn4)CC3)c3ccccc23)c1 [Example 69]
- IC50 (Gli-luciferase activity; [3]): 1 to 10 µM
- IC50 (Gli-luciferase activity; [4]): < 0.1 µM
- IC50 [1]: 0.1 to 1 µM
- IC50 [2]: 0.1 to 1 µM

Structure (SMILES): OC(c1ccc(N2CCN(c3nnc(Cc4ccccc4)c4ccccc34)CC2)nc1)C(F)(F)F (stereo not shown) [Example 109]
- IC50 (Gli-luciferase activity; [3]): 0.1 to 1 µM
- IC50 (Gli-luciferase activity; [4]): < 0.1 µM
- IC50 [1]: < 0.1 µM
- IC50 [2]: < 0.1 µM

Structure (SMILES): CC(C)(O)c1ccc(N2CCN(c3nnc(Cc4ccc(F)cc4)c4ccccc34)CC2)nc1 [Example 191, 2-(6-{4-[4-(4-Fluoro-benzyl)-phthalazin-1-yl]-piperazin-1-yl}-pyridin-3-yl)-propan-2-ol]
- IC50 (Gli-luciferase activity; [3]): < 0.1 µM
- IC50 (Gli-luciferase activity; [4]): < 0.1 µM
- IC50 [1]: < 0.1 µM
- IC50 [2]: < 0.1 µM

Structure (SMILES): N#Cc1ccc(N2CCN(c3nnc(Cc4ccc(Cl)c(Cl)c4)c4ccccc34)CC2)nc1 [Example 176]
- IC50 (Gli-luciferase activity; [3]): 1 to 10 µM
- IC50 (Gli-luciferase activity; [4]): 0.1 to 1 µM
- IC50 [1]: 0.1 to 1 µM
- IC50 [2]: 0.1 to 1 µM

Structure (SMILES): Cc1ccc(Cc2nnc(N3CCN(c4ccc(C#N)cn4)CC3)c3ccccc23)cc1 [Example 173]
- IC50 (Gli-luciferase activity; [3]): 0.1 to 1 µM
- IC50 (Gli-luciferase activity; [4]): < 0.1 µM
- IC50 [1]: < 0.1 µM
- IC50 [2]: < 0.1 µM

Structure (SMILES): CC(C)(O)c1cnc(N2CCN(c3nnc(Cc4ccccc4)c4ccccc34)CC2)nc1C(F)(F)F [Example 149]
- IC50 (Gli-luciferase activity; [3]): < 0.1 µM
- IC50 (Gli-luciferase activity; [4]): < 0.1 µM
- IC50 [1]: < 0.1 µM
- IC50 [2]: < 0.1 µM

Structure (SMILES): CCOC(=O)c1ccc(N2CCN(c3nnc(Cc4ccc(F)cc4F)c4ccccc34)[C@@H](C)C2)nc1 [Example 187]
- IC50 (Gli-luciferase activity; [3]): 0.1 to 1 µM
- IC50 (Gli-luciferase activity; [4]): < 0.1 µM
- IC50 [1]: < 0.1 µM
- IC50 [2]: < 0.1 µM

Structure (SMILES): CC(C)CC(=O)NCc1ccc(N2CCN(c3nnc(Cc4ccccc4)c4ccccc34)CC2)cc1 [Example 78c]
- IC50 (Gli-luciferase activity; [3]): < 0.1 µM
- IC50 (Gli-luciferase activity; [4]): < 0.1 µM
- IC50 [1]: < 0.1 µM
- IC50 [2]: < 0.1 µM

Structure (SMILES): CC(C)C(O)c1ccc(N2CCN(c3nnc(Cc4ccccc4)c4ccccc34)CC2)nc1 (stereo not shown) [Example 220]
- IC50 (Gli-luciferase activity; [3]): < 0.1 µM
- IC50 (Gli-luciferase activity; [4]): < 0.1 µM
- IC50 [1]: < 0.1 µM
- IC50 [2]: < 0.1 µM

Structure (SMILES): COC(=O)c1cnc(N2CCN(c3nnc(Cc4ccccc4)c4ccccc34)CC2)cc1C(F)(F)F [Example 136]
- IC50 (Gli-luciferase activity; [3]): 0.1 to 1 µM
- IC50 (Gli-luciferase activity; [4]): < 0.1 µM
- IC50 [1]: < 0.1 µM
- IC50 [2]: < 0.1 µM

Structure (SMILES): CC(C)c1cnc(N2CCN(c3nnc(Cc4ccccc4)c4ccccc34)CC2)cn1 [Example 165, 4-(4-Benzyl-phthalazin-1-yl)-5′-isopropyl-3,4,5,6-tetrahydro-2H-[1,2′]bipyrazinyl]
- IC50 (Gli-luciferase activity; [3]): < 0.1 µM
- IC50 (Gli-luciferase activity; [4]): < 0.1 µM
- IC50 [1]: < 0.1 µM
- IC50 [2]: < 0.1 µM

Structure (SMILES): FC(F)(F)c1ccnc(N2CCN(c3nnc(Cc4ccccc4)c4ccccc34)CC2)n1 [Example 50]
- IC50 (Gli-luciferase activity; [3]): 0.1 to 1 µM
- IC50 (Gli-luciferase activity; [4]): < 0.1 µM
- IC50 [1]: 0.1 to 1 µM
- IC50 [2]: 0.1 to 1 µM

Structure (SMILES): FC(F)(F)c1ccc(N2CCN(c3nnc(Cc4ccccc4)c4ccoc34)CC2)nc1 [Example 246, 4-Benzyl-7-[4-(5-trifluoromethyl-pyridin-2-yl)-piperazin-1-yl]-furo[2,3-d]pyridazine]
- IC50 (Gli-luciferase activity; [3]): 1 to 10 µM
- IC50 (Gli-luciferase activity; [4]): < 0.1 µM
- IC50 [1]: 10 to 40 µM
- IC50 [2]: 1 to 10 µM

Structure (SMILES): c1ccc(Cc2nnc(N3CCC(c4c[nH]c5ccccc45)CC3)c3ccccc23)cc1 [Example 113]
- IC50 (Gli-luciferase activity; [3]): 1 to 10 µM
- IC50 (Gli-luciferase activity; [4]): 0.1 to 1 µM
- IC50 [1]: 0.1 to 1 µM
- IC50 [2]: 0.1 to 1 µM

Structure (SMILES): CC(C)n1cc2c(Cc3ccccc3)nnc(N3CCN(c4ccc(C(F)(F)F)cn4)CC3)c2c1 [Example 244, 1-benzyl-6-isopropyl-4-(4-(5-(trifluoromethyl)pyridin-2-yl)piperazin-1-yl)-6H-pyrrolo[3,4-d]pyridazine]
- IC50 (Gli-luciferase activity; [3]): 1 to 10 µM
- IC50 (Gli-luciferase activity; [4]): 1 to 10 µM
- IC50 [1]: 0.1 to 1 µM
- IC50 [2]: 0.1 to 1 µM

Structure (SMILES): C[C@@H]1CN(c2nnc(Cc3ccccc3)c3ccccc23)CCN1c1ccc(C#N)cn1 [Example 142, 6-[(R)-4-(4-Benzyl-phthalazin-1-yl)-2-methyl-piperazin-1-yl]-nicotinonitrile]
- IC50 (Gli-luciferase activity; [3]): 0.1 to 1 µM
- IC50 (Gli-luciferase activity; [4]): < 0.1 µM
- IC50 [1]: < 0.1 µM
- IC50 [2]: < 0.1 µM

Structure (SMILES): N#Cc1ccc(Cn2cc(C3CCN(c4ccc(C(F)(F)F)cn4)CC3)c3ccccc32)cc1 [Example 96]
- IC50 (Gli-luciferase activity; [3]): 0.1 to 1 µM
- IC50 (Gli-luciferase activity; [4]): < 0.1 µM
- IC50 [1]: 0.1 to 1 µM
- IC50 [2]: 0.1 to 1 µM

Structure (SMILES): CN1CCN(C(=O)c2ccc(N3CCN(c4nnc(Cc5ccccc5)c5ccccc45)CC3)nc2)CC1 [Example 54i]
- IC50 (Gli-luciferase activity; [3]): 1 to 10 µM
- IC50 (Gli-luciferase activity; [4]): 0.1 to 1 µM
- IC50 [1]: 0.1 to 1 µM
- IC50 [2]: 1 to 10 µM

Structure (SMILES): N#Cc1ccc(N2CCN(c3nnc(Cc4ccc(C(=O)O)cc4)c4ccccc34)CC2)nc1 [Example 180]
- IC50 (Gli-luciferase activity; [3]): 10 to 40 µM
- IC50 (Gli-luciferase activity; [4]): 1 to 10 µM
- IC50 [1]: 10 to 40 µM
- IC50 [2]: 10 to 40 µM

Structure (SMILES): N#Cc1ccc(N2CCN(c3cnc(Cc4cccc(Cl)c4)c4ccccc34)CC2)nc1 [Example 81]
- IC50 (Gli-luciferase activity; [3]): 10 to 40 µM
- IC50 (Gli-luciferase activity; [4]): 1 to 10 µM
- IC50 [1]: 1 to 10 µM
- IC50 [2]: 10 to 40 µM

Structure (SMILES): CN(C)C(=O)c1ccc(N2CCN(c3nnc(Cc4ccccc4)c4ccccc34)CC2)nc1 [Example 54s]
- IC50 (Gli-luciferase activity; [3]): 0.1 to 1 µM
- IC50 (Gli-luciferase activity; [4]): < 0.1 µM
- IC50 [1]: < 0.1 µM
- IC50 [2]: 0.1 to 1 µM

Structure (SMILES): CC(C)(C)OC(=O)NC1CN(C(=O)c2ccc(N3CCN(c4nnc(Cc5ccccc5)c5ccccc45)CC3)nc2)C1 [Example 54v]
- IC50 (Gli-luciferase activity; [3]): 1 to 10 µM
- IC50 (Gli-luciferase activity; [4]): 0.1 to 1 µM
- IC50 [1]: 0.1 to 1 µM
- IC50 [2]: 0.1 to 1 µM

Structure (SMILES): CC(C)(O)c1cnc(N2CCN(c3nnc(Cc4ccccc4)c4ccccc34)CC2)cn1 [Example 150]
- IC50 (Gli-luciferase activity; [3]): < 0.1 µM
- IC50 (Gli-luciferase activity; [4]): < 0.1 µM
- IC50 [1]: < 0.1 µM
- IC50 [2]: < 0.1 µM

Structure (SMILES): N#Cc1ccc(N2CCN(c3ncc(Cc4ccccc4)c4ccccc34)CC2)nc1 [Example 83, 6-[4-(4-Benzyl-isoquinolin-1-yl)-piperazin-1-yl]-nicotinonitrile]
- IC50 (Gli-luciferase activity; [3]): 0.1 to 1 µM
- IC50 (Gli-luciferase activity; [4]): 0.1 to 1 µM
- IC50 [1]: 1 to 10 µM
- IC50 [2]: 1 to 10 µM

Structure (SMILES): N#Cc1ccc(N2CCN(c3nnc(Cc4cccc(C#N)c4)c4ccccc34)CC2)nc1 [Example 65]
- IC50 (Gli-luciferase activity; [3]): 1 to 10 µM
- IC50 (Gli-luciferase activity; [4]): 0.1 to 1 µM
- IC50 [1]: 0.1 to 1 µM
- IC50 [2]: 0.1 to 1 µM

Structure (SMILES): CCOC(=O)c1ccc(N2CCN(c3nnc(Cc4ccccc4)c4ccccc34)CC2)nc1 [Example 54]
- IC50 (Gli-luciferase activity; [3]): 0.1 to 1 µM
- IC50 (Gli-luciferase activity; [4]): < 0.1 µM
- IC50 [1]: < 0.1 µM
- IC50 [2]: < 0.1 µM
